Assay results taken from ChEMBL document CHEMBL1201862, “PubChem BioAssay data set” (2004).
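Where inhibition never reached the appropriate level, the endpoint shown equals the highest concentration tested. Otherwise, values were interpolated linearly from a five-concentration, 48-hour dose response in 96-well plates. Here, GI50 denotes the concentration required for 50% inhibition of growth.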 Activity calls are given as the source filed them. Cut-off read from the data, not from the text of the source: active = GI50 up to about 1.1 µM and inactive = higher.

Legend:
Experiment in all cases: NCI anticancer screen, dose series, 48 h
SK-OV-3 = test system: SK-OV-3
NCI-H522 = test system: NCI-H522
SF-268 = test system: SF-268
UACC-62 = test system: UACC-62
K562 = test system: K562
NCI-H460 = test system: NCI-H460
COLO 205 = test system: COLO 205
A549 = test system: A549
MOLT-4 = test system: MOLT-4
HCC 2998 = test system: HCC 2998
RPMI-8226 = test system: RPMI-8226
OVCAR-4 = test system: OVCAR-4
DU-145 = test system: DU-145
T47D = test system: T47D
MCF7 = test system: MCF7
OVCAR-3 = test system: OVCAR-3
OVCAR-8 = test system: OVCAR-8
BT-549 = test system: BT-549
NCI-H23 = test system: NCI-H23
HCT-15 = test system: HCT-15

| Compound | GI50 (SK-OV-3) | GI50 (NCI-H522) | GI50 (SF-268) | GI50 (UACC-62) | GI50 (K562) | GI50 (NCI-H460) | GI50 (COLO 205) | GI50 (A549) | GI50 (MOLT-4) | GI50 (HCC 2998) | GI50 (RPMI-8226) | GI50 (OVCAR-4) | GI50 (DU-145) | GI50 (T47D) | GI50 (MCF7) | GI50 (OVCAR-3) | GI50 (OVCAR-8) | GI50 (BT-549) | GI50 (NCI-H23) | GI50 (HCT-15) [µM] |
| --- | --- | --- | --- | --- | --- | --- | --- | --- | --- | --- | --- | --- | --- | --- | --- | --- | --- | --- | --- | --- |
| COC(=O)N1C2C(C[C@@]1(C)C(=O)OC)c1ccccc1N2S(=O)(=O)c1ccccc1 (stereo partly drawn) | > 100 µM (inactive) | > 100 µM (inactive) | > 100 µM (inactive) | > 100 µM (inactive) | > 100 µM (inactive) | > 100 µM (inactive) | > 100 µM (inactive) | > 100 µM (inactive) | > 100 µM (inactive) | > 100 µM (inactive) | > 100 µM (inactive) | > 100 µM (inactive) | > 100 µM (inactive) | > 100 µM (inactive) | > 100 µM (inactive) | > 100 µM (inactive) | > 100 µM (inactive) | > 100 µM (inactive) | > 100 µM (inactive) | – |
| O=C(CNc1ccccc1[N+](=O)[O-])Nn1c(-c2ccccc2)nc2ccccc2c1=O | 30.7 µM (inactive) | > 10 µM (inactive) | 32.4 µM (inactive) | 10.7 µM (inactive) | 16.3 µM (inactive) | 20.9 µM (inactive) | 20.6 µM (inactive) | 43.5 µM (inactive) | 16.1 µM (inactive) | 13.5 µM (inactive) | 20.9 µM (inactive) | 17 µM (inactive) | 28.7 µM (inactive) | 17.3 µM (inactive) | 19.1 µM (inactive) | 29.4 µM (inactive) | 33.8 µM (inactive) | 17.9 µM (inactive) | 25.8 µM (inactive) | 19.9 |
| O=C(Nc1ccccc1C(=O)O)/C(=C/c1ccccc1)NC(=O)c1ccccc1 | > 100 µM (inactive) | > 100 µM (inactive) | > 100 µM (inactive) | > 100 µM (inactive) | > 100 µM (inactive) | > 100 µM (inactive) | > 100 µM (inactive) | > 100 µM (inactive) | > 100 µM (inactive) | > 100 µM (inactive) | > 100 µM (inactive) | – | > 100 µM (inactive) | > 100 µM (inactive) | > 100 µM (inactive) | > 100 µM (inactive) | > 100 µM (inactive) | > 100 µM (inactive) | > 100 µM (inactive) | > 100 |
| COC(=O)C12C3C4C1C1C2C3C41C(=O)NC(C)(C)CC(=O)O (stereo not drawn) | – | > 100 µM (inactive) | > 100 µM (inactive) | > 100 µM (inactive) | – | 20.7 µM (inactive) | > 100 µM (inactive) | > 100 µM (inactive) | > 100 µM (inactive) | > 100 µM (inactive) | > 100 µM (inactive) | > 100 µM (inactive) | > 100 µM (inactive) | > 100 µM (inactive) | > 100 µM (inactive) | > 100 µM (inactive) | > 100 µM (inactive) | > 100 µM (inactive) | > 100 µM (inactive) | > 100 |
| NS(=O)(=O)c1nnc(/N=C(/CCC(=O)O)C(=O)O)s1 | > 100 µM (inactive) | > 100 µM (inactive) | – | > 100 µM (inactive) | > 100 µM (inactive) | > 100 µM (inactive) | > 100 µM (inactive) | > 100 µM (inactive) | > 100 µM (inactive) | > 100 µM (inactive) | > 100 µM (inactive) | > 100 µM (inactive) | > 100 µM (inactive) | > 100 µM (inactive) | > 100 µM (inactive) | > 100 µM (inactive) | > 100 µM (inactive) | > 100 µM (inactive) | > 100 µM (inactive) | > 100 |
| CC(C)(C)OC(=O)NC(CCC(=O)OCc1ccccc1)C(=O)NCCCO (stereo not drawn) | > 100 µM (inactive) | > 100 µM (inactive) | > 100 µM (inactive) | > 100 µM (inactive) | > 100 µM (inactive) | > 100 µM (inactive) | – | > 100 µM (inactive) | > 100 µM (inactive) | > 100 µM (inactive) | > 100 µM (inactive) | > 100 µM (inactive) | > 100 µM (inactive) | > 100 µM (inactive) | > 100 µM (inactive) | > 100 µM (inactive) | > 100 µM (inactive) | > 100 µM (inactive) | > 100 µM (inactive) | > 100 |
| Cc1cccc2sc(NC(=O)NS(=O)(=O)n3cnc4ccccc43)nc12 | 38.3 µM (inactive) | 21.6 µM (inactive) | 28.5 µM (inactive) | 18.3 µM (inactive) | – | 29.9 µM (inactive) | 27.8 µM (inactive) | 37.5 µM (inactive) | 26.5 µM (inactive) | 15.6 µM (inactive) | 21.5 µM (inactive) | 43.8 µM (inactive) | 32.8 µM (inactive) | 15.1 µM (inactive) | 16.1 µM (inactive) | 22.3 µM (inactive) | 22.5 µM (inactive) | 23.3 µM (inactive) | 18.4 µM (inactive) | 25.9 |
